From article PMC13544220, “Glycemic and bodyweight effects of GIPR coding variation reflect differences in surface expression and intrinsic functional impairment” (Science Advances, 2026)

System: wild-type and variant SNAP-GIPR
Assay: Mini-Gs recruitment (nanoBiT) in AD293 cells
Type: cell-based, human
Details: 100 nM GIP, mean, n=7
Description: AD293 cells were reverse transfected with the GIPR variant or wild-type plasmids plus mini-Gs-LgBiT in a 1:1 ratio using Lipofectamine 2000 in 96-well white-bottom microplates precoated with 0.01% poly-D-lysine. All variants were tested in parallel on each occasion to control for transfection efficiency differences between experiments. After 24 hours, media were removed, cells washed once, and HBSS (Hanks’ balanced salt solution) containing furimazine (Promega, UK) at a 1:100 dilution was added. […] Responses were quantified by as fractional change from baseline with subtraction of the response to vehicle to account for substrate depletion, from which the AUC (area under the curve) was calculated and scaled to the average response obtained from each experiment.

Question: Which results are given for `CC[C@H](C)[C@H](NC(=O)[C@H](CO)NC(=O)[C@H](Cc1ccc(O)cc1)NC(=O)[C@H](CC(=O)O)NC(=O)[C@H](CO)NC(=O)[C@@H](NC(=O)[C@H](Cc1ccccc1)NC(=O)[C@@H](NC(=O)CNC(=O)[C@H](CCC(=O)O)NC(=O)[C@H](C)NC(=O)[C@@H](N)Cc1ccc(O)cc1)[C@@H](C)O)[C@@H](C)CC)C(=O)N[C@@H](C)C(=O)N[C@@H](CCSC)C(=O)N[C@@H](CC(=O)O)C(=O)N[C@@H](CCCCN)C(=O)N[C@H](C(=O)N[C@@H](Cc1c[nH]cn1)C(=O)N[C@@H](CCC(N)=O)C(=O)N[C@@H](CCC(N)=O)C(=O)N[C@@H](CC(=O)O)C(=O)N[C@@H](Cc1ccccc1)C(=O)N[C@H](C(=O)N[C@@H](CC(N)=O)C(=O)N[C@@H](Cc1c[nH]c2ccccc12)C(=O)N[C@@H](CC(C)C)C(=O)N[C@@H](CC(C)C)C(=O)N[C@@H](C)C(=O)N[C@@H](CCC(N)=O)C(=O)N[C@@H](CCCCN)C(=O)NCC(=O)N[C@@H](CCCCN)C(=O)N[C@@H](CCCCN)C(=O)N[C@@H](CC(N)=O)C(=O)N[C@@H](CC(=O)O)C(=O)N[C@@H](Cc1c[nH]c2ccccc12)C(=O)N[C@@H](CCCCN)C(=O)N[C@@H](Cc1c[nH]cn1)C(=O)N[C@@H](CC(N)=O)C(=O)N[C@H](C(=O)N[C@H](C(=O)N[C@@H](CCC(N)=O)C(=O)O)[C@@H](C)O)[C@@H](C)CC)C(C)C)[C@@H](C)CC` [GIP, glucose-dependent insulinotropic polypeptide, reference compound]?
Answer: mini-Gs recruitment (A207V): 1.64 vs. experimental average; mini-Gs recruitment (A268V): 1.037 vs. experimental average; mini-Gs recruitment (D66G): 0.1098 vs. experimental average; mini-Gs recruitment (E252D): 1.347 vs. experimental average; mini-Gs recruitment (E288G): 0.1501 vs. experimental average; mini-Gs recruitment (E354Q): 1.309 vs. experimental average; mini-Gs recruitment (E463Q): 1.656 vs. experimental average; mini-Gs recruitment (G438S): 1.599 vs. experimental average; mini-Gs recruitment (I378M): 1.145 vs. experimental average; mini-Gs recruitment (I403V): 1.332 vs. experimental average; mini-Gs recruitment (L100F): 1.391 vs. experimental average; mini-Gs recruitment (L262H): 1.034 vs. experimental average; mini-Gs recruitment (L262V): 1.282 vs. experimental average; mini-Gs recruitment (L304R): 0.04884 vs. experimental average; mini-Gs recruitment (R101H): 0.1049 vs. experimental average; mini-Gs recruitment (R131S): 1.232 vs. experimental average; mini-Gs recruitment (R136W): 0.7709 vs. experimental average; mini-Gs recruitment (R183Q): 0.3712 vs. experimental average; mini-Gs recruitment (R190Q): -0.001793 vs. experimental average; mini-Gs recruitment (R196G): 1.201 vs. experimental average; mini-Gs recruitment (R217L): 1.091 vs. experimental average; mini-Gs recruitment (R300W): 1.262 vs. experimental average; mini-Gs recruitment (R336P): 1.585 vs. experimental average; mini-Gs recruitment (R341P): 0.3717 vs. experimental average; mini-Gs recruitment (R404H): 1.074 vs. experimental average; mini-Gs recruitment (S64A): 0.6095 vs. experimental average; mini-Gs recruitment (S415G): 1.199 vs. experimental average; mini-Gs recruitment (S415I): 1.365 vs. experimental average; mini-Gs recruitment (S447T): 1.5239 vs. experimental average; mini-Gs recruitment (T116R): 0.9756 vs. experimental average; mini-Gs recruitment (WT): 1.184 vs. experimental average
